Results as given in ChEMBL document CHEMBL3217537, “The importance of solvation in the design of ligands targeting membrane proteins” (Medchemcomm, 2011).

Biological target: 5-hydroxytryptamine receptor 4 (Rattus norvegicus, UniProt Q62758)
Assay: Displacement of [3H]GR113808 from 5-HT4 receptor in rat striatal membranes after 30 mins by liquid scintillation spectrometric analysis
Format: cell membranes, Striatum, Membrane

5-hydroxytryptamine receptor 4, sequence (Q62758 whole entry): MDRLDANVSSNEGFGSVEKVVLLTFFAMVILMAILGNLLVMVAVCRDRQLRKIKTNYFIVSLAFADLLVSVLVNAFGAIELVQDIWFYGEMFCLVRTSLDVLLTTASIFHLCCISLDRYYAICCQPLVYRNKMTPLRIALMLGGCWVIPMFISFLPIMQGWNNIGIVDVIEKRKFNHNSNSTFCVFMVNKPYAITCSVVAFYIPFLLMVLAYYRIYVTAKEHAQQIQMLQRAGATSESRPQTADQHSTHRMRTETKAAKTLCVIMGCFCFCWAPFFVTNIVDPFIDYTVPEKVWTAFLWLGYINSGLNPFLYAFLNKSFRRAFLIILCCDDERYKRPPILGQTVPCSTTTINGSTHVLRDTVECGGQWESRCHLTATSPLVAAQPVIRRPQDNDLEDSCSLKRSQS

Row | Ki | SMILES
1 | 0.15 nM | CCCCN1CCC(CNC(=S)c2cccc3[nH]cnc23)CC1
2 | 0.081 nM | CCCCN1CCC(CNC(=S)c2cc(Cl)cc3[nH]cnc23)CC1
